In paper PMC10272112 (Nature Communications, 2023):
Where “and” joins values, the source holds several entries; their conditions need not be identical. Equal values may be shown once.

Columns and labels:
TBL1XR1 (Homo sapiens) = assay: Chemoproteomic competition pulldown assay (co-competed NCoR partner); format: binding; conditions: iQ, SW620 lysate
Protocol: To identify proteins directly bound by lipoic acid, we employed a chemoproteomic competition assay. Briefly, (R/S)-LA was immobilized on sepharose beads via an amidation reaction to form an affinity matrix (abbreviated as iL; Fig. 1a). This affinity matrix can be incubated with cell lysate to pull down potential LA or LM target proteins and identify these targets via bottom-up proteomics. In a competition assay, free LA or LM were incubated with lysate at different concentrations before pulling down and quantifying target proteins. […] (Fig. 1b, see “Methods” for details). […] The lysate buffer used in this assay contains 1 mM DTT to mimic the intracellular reductive milieu and to reduce lipoic acid and LM. […] Additional competition assays performed in lung adenocarcinoma cell A549 lysate also identified HDAC1, HDAC2, and HDAC6 as targets (Supplementary Fig. 1b). Amongst the three cell lines tested, HDACs were the only confidently identified targets across the 1500–3000 proteins quantified in these assays. […] We validated the results by analogous pulldown competition assays using two other affinity matrices prepared via the immobilization of either the HDAC inhibitor Quisinostat (iQ) and an analog of the class IIa HDAC inhibitor Bürli’s 31[14] (iC)[12]. We have previously shown that these affinity matrices specifically bind to the active sites of HDACs and have used them for HDACi selectivity profiling. Indeed, binding of (R/S)-LA and (R/S)-LM to HDAC1, HDAC2, HDAC3, HDAC6, and, to a lesser extent, HDAC8 was confirmed in these assays (Supplementary Fig. 1c, d). No binding to class IIa HDACs or the recently discovered common HDAC inhibitor off-target MBLAC2 was observed (Supplementary Fig. 1e)[12]. […] This observation might reflect electrostatic repulsion between the HDAC10 active site gate-keeper glutamic acid residues[15],[16] and the terminal carboxylic acid of LA.
To assess the degree of protein depletion from lysates by the affinity matrix, a second pulldown (PDPD) with fresh beads was performed using the unbound protein fraction from the vehicle control flow through. The beads were washed (1 × 1 mL of lysis buffer without inhibitors and only 0.4% Igepal, 2 × 2 mL of lysis buffer without inhibitors and only 0.2% Igepal), and captured proteins were denatured with 8 M urea buffer, alkylated with 55 mM chloroacetamide and digested with Trypsin according to standard procedures. The resulting peptides were desalted on a C18 filter plate (Sep-Pak® tC18 µElution Plate, Waters), vacuum dried, and stored at −20 °C until LC–MSMS measurement.
For the competition assays, relative binding was calculated based on the protein intensity ratio to the DMSO control for every single inhibitor concentration. EC50 values were derived from a four-parameter log-logistic regression with variable slope (constrain: bottom > 0). The obtained EC50 values were multiplied with a protein-dependent correction factor (cf), resulting in the apparent Kd value (Kd^app). The correction factor is determined by calculating the ratio of the protein intensity of two consecutive pulldowns of the vehicle control sample[13]. Targets of the inhibitors were annotated manually according to published procedures[12],[46],[47]. […] Additionally, the number of unique peptides and MSMS counts per condition were taken into account. Positive target binding across several independent experiments performed with different cell lysates further substantiated our confidence for a true positive drug-target binding event.

α-Tubulin AcK40 = assay: α-tubulin acetylation detection by western blot, CBP-HA transfected HEK293T; format: cell-based; conditions: for concentration showing substantial increase of α-Tubulin AcK40 acetylation: 7 h drug incubation; for α-Tubulin AcK40 acetylation level relative to control: HEK293T
Protocol: (§1) 0.2 × 10^6 HEK293T (ATCC: CRL-3216) cells were transfected with pcDNA 3.1-HA CBP plasmids (1 μg/well for the 6-well plate) by FuGENE. After 2 days, cells were treated with ACY-738, lipoic acid, and lipoamide for 7 h, then were washed by ice-cold PBS and lysed in Triton lysis buffer (50 mM Tris, pH 8.0, 150 mM NaCl, 1 mM EDTA, 0.1% TritonX-100 and complete EDTA-free protease inhibitors (Roche)) for analysis. To detect protein acetylation, 0.2 μM Trichostatin A and 5 mM nicotinamide were added to PBS for washing, and 10 μM trichostatin A, 10 mM nicotinamide, and 50 mM sodium butyrate were added to Triton lysis buffer.

DDX3X AcK118 = assay: DDX3X acetylation detection by western blot, CBP-HA transfected HEK293T; format: cell-based
Protocol: as §1

HDAC2 = HDAC2 (Homo sapiens, UniProt Q92769); assay: HDAC-Glo assay; format: biochemical; set-up: purchased BPS Bioscience 50002; conditions: for EC50: read-out: log EC50 from dose-dependent HDAC inhibition curves (converted); for HDAC2 relative activity: sheet S2b
Sequence of HDAC2 (Q92769 whole entry): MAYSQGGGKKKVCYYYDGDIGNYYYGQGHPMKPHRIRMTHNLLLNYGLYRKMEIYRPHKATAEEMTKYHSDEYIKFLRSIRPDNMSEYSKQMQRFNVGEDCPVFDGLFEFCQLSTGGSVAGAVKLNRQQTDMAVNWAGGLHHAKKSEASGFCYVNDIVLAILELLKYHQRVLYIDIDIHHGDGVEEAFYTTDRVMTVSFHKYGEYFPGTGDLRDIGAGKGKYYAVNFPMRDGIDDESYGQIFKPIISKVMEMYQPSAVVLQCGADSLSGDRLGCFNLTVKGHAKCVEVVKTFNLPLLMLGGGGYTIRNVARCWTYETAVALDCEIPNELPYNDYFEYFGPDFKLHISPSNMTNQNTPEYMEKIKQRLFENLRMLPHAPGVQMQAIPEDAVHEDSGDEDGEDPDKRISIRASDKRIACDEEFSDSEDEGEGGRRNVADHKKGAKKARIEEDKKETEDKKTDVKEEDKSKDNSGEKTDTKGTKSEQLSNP
Protocol: To validate the inhibition of HDACs by LA and LM and elaborate on the structure-activity relationship (SAR) of enantiomers as well as oxidized versus reduced forms of the molecules, we performed enzyme activity assays for recombinant HDAC1,2,3,6,8 as well as FRET-based binding assay for recombinant HDAC10.
The experiments were performed according to ref. [48]. […] Drug dosing was performed with a D300e Digital Dispenser (Tecan). HDACs (7 ng/mL for HDAC1, 25 ng/mL for HDAC2, 200 ng/mL for HDAC3/Ncor2 complex, 100 ng/mL for HDAC6, 200 ng/mL for HDAC8) and inhibitors were incubated together at room temperature (RT) for 30 min. After the addition of the HDAC-Glo™ I/II reagent, plates were shaken (800 rpm orbital shaker, 30 s), centrifuged (300 g, 1 min), and incubated at RT for 30 min. Luminescence was detected with a CLARIOstar (BMG Labtech) plate reader.

Sequence of TBL1XR1 (Homo sapiens) (O15379 whole entry): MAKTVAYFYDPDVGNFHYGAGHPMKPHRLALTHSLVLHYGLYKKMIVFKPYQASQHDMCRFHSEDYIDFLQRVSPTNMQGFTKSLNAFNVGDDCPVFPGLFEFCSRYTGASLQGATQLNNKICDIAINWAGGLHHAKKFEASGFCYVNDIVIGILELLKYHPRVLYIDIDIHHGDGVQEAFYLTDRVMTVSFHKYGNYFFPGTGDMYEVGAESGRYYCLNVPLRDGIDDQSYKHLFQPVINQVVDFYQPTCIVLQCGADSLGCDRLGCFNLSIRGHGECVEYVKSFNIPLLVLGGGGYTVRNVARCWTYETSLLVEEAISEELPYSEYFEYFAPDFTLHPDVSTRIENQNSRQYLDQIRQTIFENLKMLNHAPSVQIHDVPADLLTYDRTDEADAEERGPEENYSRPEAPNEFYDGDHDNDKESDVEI
Sequence of TBL1XR1 (Homo sapiens) (Q9BZK7 2-514, further chain): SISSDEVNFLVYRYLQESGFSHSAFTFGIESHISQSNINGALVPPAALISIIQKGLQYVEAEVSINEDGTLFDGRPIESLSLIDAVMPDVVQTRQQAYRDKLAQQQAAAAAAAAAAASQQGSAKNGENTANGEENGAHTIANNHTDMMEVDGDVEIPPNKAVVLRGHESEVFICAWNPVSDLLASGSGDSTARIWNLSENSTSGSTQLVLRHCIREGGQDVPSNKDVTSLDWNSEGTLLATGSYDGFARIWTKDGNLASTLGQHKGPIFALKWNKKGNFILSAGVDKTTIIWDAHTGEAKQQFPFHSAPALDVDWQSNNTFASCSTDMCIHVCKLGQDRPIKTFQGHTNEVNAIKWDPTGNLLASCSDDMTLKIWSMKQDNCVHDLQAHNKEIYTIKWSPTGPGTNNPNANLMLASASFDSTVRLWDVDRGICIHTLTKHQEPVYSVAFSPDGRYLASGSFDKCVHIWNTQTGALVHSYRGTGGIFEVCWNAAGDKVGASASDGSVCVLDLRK

| Structure (SMILES) | relative binding vs DMSO (TBL1XR1 (Homo sapiens); log10 M -3.52288) | relative binding vs DMSO (TBL1XR1 (Homo sapiens); log10 M -4) | relative binding vs DMSO (TBL1XR1 (Homo sapiens); log10 M -4.52288) | relative binding vs DMSO (TBL1XR1 (Homo sapiens); log10 M -5) | relative binding vs DMSO (TBL1XR1 (Homo sapiens); log10 M -5.52288) | relative binding vs DMSO (TBL1XR1 (Homo sapiens); log10 M -6) | relative binding vs DMSO (TBL1XR1 (Homo sapiens); log10 M -6.52288) | relative binding vs DMSO (TBL1XR1 (Homo sapiens); log10 M -7) | concentration showing substantial increase of α-Tubulin AcK40 acetylation (α-Tubulin AcK40) [µM] | α-Tubulin AcK40 acetylation level relative to control (α-Tubulin AcK40; 1 mM) [fold] | α-Tubulin AcK40 acetylation level relative to control (α-Tubulin AcK40; .5 (mM)) [fold] | DDX3X AcK118 acetylation level relative to control (DDX3X AcK118; 1 mM) [fold] | DDX3X AcK118 acetylation level relative to control (DDX3X AcK118; .5 (mM)) [fold] | EC50 (HDAC2) [µM] | HDAC2 relative activity (HDAC2; log conc -3.30103) | HDAC2 relative activity (HDAC2; log conc -3.82945) | HDAC2 relative activity (HDAC2; log conc -4.35788) | HDAC2 relative activity (HDAC2; log conc -4.88629) | HDAC2 relative activity (HDAC2; log conc -5.41477) | HDAC2 relative activity (HDAC2; log conc -5.94309) | also measured |
| --- | --- | --- | --- | --- | --- | --- | --- | --- | --- | --- | --- | --- | --- | --- | --- | --- | --- | --- | --- | --- | --- |
| O=C(O)CCCCC1CCSS1 (racemic) [(R/S)-LA, (R/S)-lipoic acid] | 0.2899 | 0.4212 | 0.5577 | 0.7209 | 0.9534 | 0.8832 | 1.088 | 1.002 | 50 | 3.4 | 2 | 2.4 | 1.8 | 27.9 | 1.632 and 1.608 and 1.6104 | 4.377 and 4.239 and 4.397 | 14.1348 and 14.1034 and 14.0027 | 32.6794 and 32.1097 and 32.0348 | 62.7872 and 63.5079 and 63.5078 | 83.5078 and 83.413 and 83.6174 | HDAC enzymatic activity (normalized luminescence) (HDAC2; 0.5 M TCEP, log10 M -3.30103, 3 technical replicates): 4.517 and 4.579 and 4.669; HDAC enzymatic activity (normalized luminescence) (HDAC2; 0.5 M TCEP, log10 M -3.82945, 3 technical replicates): 14.6838 and 15.1597 and 14.9231; HDAC enzymatic activity (normalized luminescence) (HDAC2; 0.5 M TCEP, log10 M -4.35788, 3 technical replicates): 37.5127 and 37.9281 and 38.3803; HDAC enzymatic activity (normalized luminescence) (HDAC2; 0.5 M TCEP, log10 M -4.88629, 3 technical replicates): 65.6665 and 63.7639 and 65.7588; HDAC enzymatic activity (normalized luminescence) (HDAC2; 0.5 M TCEP, log10 M -5.41477, 3 technical replicates): 83.5292 and 85.2785 and 86.439; HDAC enzymatic activity (normalized luminescence) (HDAC2; 0.5 M TCEP, log10 M -5.94309, 3 technical replicates): 90.5846 and 91.5425 and 93.8157; HDAC enzymatic activity (normalized luminescence) (HDAC2; 0.5 M TCEP, log10 M -6.47756, 3 technical replicates): 95.0155 and 95.0012 and 98.6939; HDAC enzymatic activity (normalized luminescence) (HDAC2; 0.5 M TCEP, log10 M -6.87615, 3 technical replicates): 97.7664 and 98.3233 and 101.153; HDAC enzymatic activity (normalized luminescence) (HDAC2; no TCEP, log10 M -3.30103, 3 technical replicates): 44.2753 and 42.6833 and 42.8281; HDAC enzymatic activity (normalized luminescence) (HDAC2; no TCEP, log10 M -3.82945, 3 technical replicates): 74.0269 and 74.0487 and 74.0611; HDAC enzymatic activity (normalized luminescence) (HDAC2; no TCEP, log10 M -4.35788, 3 technical replicates): 91.4647 and 91.3223 and 92.1121; HDAC enzymatic activity (normalized luminescence) (HDAC2; no TCEP, log10 M -4.88629, 3 technical replicates): 96.4611 and 96.3058 and 97.9917; HDAC enzymatic activity (normalized luminescence) (HDAC2; no TCEP, log10 M -5.41477, 3 technical replicates): 98.5234 and 99.2037 and 100.016; HDAC enzymatic activity (normalized luminescence) (HDAC2; no TCEP, log10 M -5.94309, 3 technical replicates): 96.9658 and 96.4307 and 98.1115; HDAC enzymatic activity (normalized luminescence) (HDAC2; no TCEP, log10 M -6.47756, 3 technical replicates): 98.5723 and 98.9021 and 101.472; HDAC enzymatic activity (normalized luminescence) (HDAC2; no TCEP, log10 M -6.87615, 3 technical replicates): 102.033 and 100.085 and 101.747; HDAC2 relative activity (HDAC2; log conc -6.47756): 91.2192 and 90.5813 and 91.6447; HDAC2 relative activity (HDAC2; log conc -6.87615): 99.2152 and 97.4208 and 97.0893 |
| NC(=O)CCCCC1CCSS1 (racemic) [(R/S)-LM, (R/S)-lipoamide] | 0.1308 | 0.176 | 0.3741 | 0.8567 | 0.9248 | 0.9851 | 0.8544 | 0.9921 | 50 | 4.0 | 2.5 | 2.4 | 2.1 | 6.64 | 71.964 and 72.3177 and 72.1483 | 80.6393 and 80.2369 and 79.5941 | 93.3465 and 95.4258 and 92.7624 | 96.436 and 96.5227 and 94.9323 | 101.607 and 103.068 and 101.387 | 100.457 and 99.1256 and 100.639 | α-Tubulin AcK40 acetylation level relative to control (α-Tubulin AcK40; 1 mM, listed as LM): 4 fold; HDAC2 relative activity (HDAC2; log conc -6.47756): 98.6184 and 99.6756 and 101.604; HDAC2 relative activity (HDAC2; log conc -6.87615): 101.142 and 100.648 and 102.314 |
